Structures can show the parent of a compound that is named as a salt.
What was measured:
rat 5-HT7a receptor = rat 5-HT7a receptor (Rattus norvegicus, UniProt P32305); experiment: Affinity for 5-HT7 receptor binding sites, radioligand binding with [3H]5-CT; settings: membranes of HEK-293 cells with rat 5-HT7a, 1 nM [3H]5-CT
How it was run: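 Competition binding on membranes from HEK-293 cells stably expressing rat 5-HT7a, 135 μg protein/mL in 50 mM Tris-HCl pH 7.5, 5 mM EDTA. Incubated 60 min at RT with 1 nM [3H]5-CT and increasing compound concentrations; nonspecific binding with 10 μM 5-HT. Filtration and scintillation counting, in triplicate.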

5-HT2B receptor [1] = target: T1, 5-HT2B receptor (Homo sapiens, UniProt P41595); experiment: Affinity for 5HT2 receptor binding sites, h5-HT2B, [3H]mesulergine; settings: CHO h5-HT2B membranes
Procedure: (§1) Sigmoidal inhibition curves were generated and fitted by nonlinear regression analysis (GraphPad Prism).
Receptor binding was performed using the human recombinant 5-HT2A (GB: X57830), 5-HT2B (GB: Z36748) and 5-HT2C (GB: M81778) receptors. The affinity of the compounds for the 3 different human 5-HT2 receptor subtypes was evaluated by competitive radioligand binding assays using [^3H]ketanserin (h5-HT2A) or [^3H]mesulergine (h5-HT2B and h5-HT2C). The assays were performed on membranes prepared from NIH3T3 stably transfected with h5-HT2A or CHO stably transfected with h5-HT2B and h5-HT2C.

[2] = target: T2, human recombinant 5-HT2C receptor (Homo sapiens, UniProt P28335); experiment: Affinity for 5HT2 receptor binding sites, h5-HT2C, [3H]mesulergine; settings: CHO h5-HT2C membranes
T2 sequence (P28335 33-458): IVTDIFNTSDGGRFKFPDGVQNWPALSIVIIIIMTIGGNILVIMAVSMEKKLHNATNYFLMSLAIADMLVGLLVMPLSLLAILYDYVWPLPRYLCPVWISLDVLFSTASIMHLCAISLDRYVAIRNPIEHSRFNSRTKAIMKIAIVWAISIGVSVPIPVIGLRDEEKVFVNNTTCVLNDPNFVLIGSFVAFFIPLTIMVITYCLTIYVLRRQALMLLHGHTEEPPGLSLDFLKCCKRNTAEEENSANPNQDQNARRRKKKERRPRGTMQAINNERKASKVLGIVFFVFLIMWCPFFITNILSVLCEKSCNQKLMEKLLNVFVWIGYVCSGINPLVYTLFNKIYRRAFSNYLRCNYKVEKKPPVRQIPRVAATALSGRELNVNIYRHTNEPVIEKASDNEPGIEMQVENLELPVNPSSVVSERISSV

[3] = target: human recombinant 5-HT6 receptor (Homo sapiens, UniProt P50406); experiment: Affinity for 5-HT6 receptor binding sites, [3H]LSD; settings: HEK-293 h5-HT6 membranes
5-HT2A receptor [4] = target: T3, 5-HT2A receptor (Homo sapiens, UniProt P28223); experiment: In vitro functional assay for 5-HT2 receptor (intracellular calcium, FLIPR), 5-HT2A; assay type: cell-based; settings: same cell lines as receptor binding, read-out: pKb 5-HT2A (converted)
Source text: The 5-HT2 receptors are linked to the Gq family of G proteins and to subsequent activation of phospholipase C, induction of phosphoinositide metabolism and to an increase in intracelular calcium concentration. The same cell lines as described in the previous section (receptor binding) were used for the FLIPR experiments.

5-HT2A receptor [5] = target: T3, 5-HT2A receptor; experiment: Affinity for 5-HT2A receptor binding sites, radioligand binding with [3H]ketanserin; settings: read-out: Ki 5-HT2A, rat cortex membranes (assay 2) or NIH3T3 h5-HT2A membranes (assay 3), table does not say which
Procedure: as §1
The affinity of the compounds for the rat 5-HT2A receptor was evaluated by competitive radioligand binding assay using [^3H]ketanserine as the radioligand. […] Brain tissue (rat cortex) was homogenized in 20 volumes per wet weight tissue of Tris-HCl buffer (50 mM, pH 7.4). The total membrane fraction was collected by centrifugation and washed by subsequent centrifugation runs (25 min at 25,000 g at 4° C.). Membranes were re-suspended in Tris-HCl buffer (50 mM, pH 7.4) containing 1 nM [^3H]ketanserin. Non-specific binding was estimated in the presence of 10 μM risperidone. The incubation was terminated by rapid filtration over Whatman GF/B filters pre-soaked in 0.1% polyethylenimine, and one washing step with 1 mL ice-cold Tris-HCl buffer, pH 7.4.

5-HT2B receptor [6] = target: T1, 5-HT2B receptor; experiment: In vitro functional assay for 5-HT2 receptor (intracellular calcium, FLIPR), 5-HT2B; assay type: cell-based; settings: same cell lines as receptor binding, read-out: pKb 5-HT2B (converted)
Procedure: In vitro functional properties of these compounds on the different 5-HT2 receptor substypes were determined using fluorometric imaging plate reader (FLIPR) based calcium assay as previously described (Porter, R. H. et al. Br. J. Pharmacol. 1999, 128, 13-20; Jerman, J. C. et al. Eur. J. Pharmacol. 2001, 414, 23-30). The 5-HT2 receptors are linked to the Gq family of G proteins and to subsequent activation of phospholipase C, induction of phosphoinositide metabolism and to an increase in intracelular calcium concentration. The same cell lines as described in the previous section (receptor binding) were used for the FLIPR experiments.

T3 sequence (P28223 whole entry): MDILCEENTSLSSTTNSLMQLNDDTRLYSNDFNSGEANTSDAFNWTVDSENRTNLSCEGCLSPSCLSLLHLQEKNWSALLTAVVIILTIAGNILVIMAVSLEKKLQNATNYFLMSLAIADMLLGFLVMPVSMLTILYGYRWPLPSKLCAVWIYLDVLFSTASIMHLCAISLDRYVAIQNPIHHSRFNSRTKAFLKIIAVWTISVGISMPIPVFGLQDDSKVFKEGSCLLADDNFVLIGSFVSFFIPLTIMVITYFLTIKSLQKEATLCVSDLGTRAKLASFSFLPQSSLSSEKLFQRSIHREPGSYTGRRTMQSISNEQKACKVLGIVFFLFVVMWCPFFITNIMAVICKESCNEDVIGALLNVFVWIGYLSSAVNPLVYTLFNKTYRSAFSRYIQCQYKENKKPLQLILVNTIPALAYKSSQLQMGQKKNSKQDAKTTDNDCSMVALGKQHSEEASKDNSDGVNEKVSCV
T1 sequence (P41595 whole entry): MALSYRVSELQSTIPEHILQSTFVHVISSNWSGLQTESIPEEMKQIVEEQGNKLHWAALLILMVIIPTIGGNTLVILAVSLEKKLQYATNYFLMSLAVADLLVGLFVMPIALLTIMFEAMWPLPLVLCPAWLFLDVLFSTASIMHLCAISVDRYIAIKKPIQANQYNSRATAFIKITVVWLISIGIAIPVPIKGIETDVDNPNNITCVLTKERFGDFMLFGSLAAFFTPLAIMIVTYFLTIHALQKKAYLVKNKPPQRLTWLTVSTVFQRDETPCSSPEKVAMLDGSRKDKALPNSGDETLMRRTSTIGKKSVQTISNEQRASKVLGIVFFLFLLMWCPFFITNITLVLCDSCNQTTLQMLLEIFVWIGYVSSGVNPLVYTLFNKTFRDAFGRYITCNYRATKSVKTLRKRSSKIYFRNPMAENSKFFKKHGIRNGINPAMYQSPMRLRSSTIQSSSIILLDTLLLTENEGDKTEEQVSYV
Sequence of rat 5-HT7a receptor (P32305 whole entry): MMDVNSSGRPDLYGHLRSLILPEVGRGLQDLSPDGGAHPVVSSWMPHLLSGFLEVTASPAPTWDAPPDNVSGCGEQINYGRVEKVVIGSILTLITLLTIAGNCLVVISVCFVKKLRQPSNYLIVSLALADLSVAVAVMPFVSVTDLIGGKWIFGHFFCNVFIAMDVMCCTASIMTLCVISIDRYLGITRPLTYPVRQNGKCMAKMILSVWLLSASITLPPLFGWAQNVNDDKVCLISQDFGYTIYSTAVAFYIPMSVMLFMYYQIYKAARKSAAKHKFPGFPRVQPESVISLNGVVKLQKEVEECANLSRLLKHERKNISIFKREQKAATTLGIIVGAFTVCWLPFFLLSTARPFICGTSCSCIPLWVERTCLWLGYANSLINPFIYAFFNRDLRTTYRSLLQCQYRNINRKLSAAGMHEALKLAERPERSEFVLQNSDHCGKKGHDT
Sequence of human recombinant 5-HT6 receptor (P50406 whole entry): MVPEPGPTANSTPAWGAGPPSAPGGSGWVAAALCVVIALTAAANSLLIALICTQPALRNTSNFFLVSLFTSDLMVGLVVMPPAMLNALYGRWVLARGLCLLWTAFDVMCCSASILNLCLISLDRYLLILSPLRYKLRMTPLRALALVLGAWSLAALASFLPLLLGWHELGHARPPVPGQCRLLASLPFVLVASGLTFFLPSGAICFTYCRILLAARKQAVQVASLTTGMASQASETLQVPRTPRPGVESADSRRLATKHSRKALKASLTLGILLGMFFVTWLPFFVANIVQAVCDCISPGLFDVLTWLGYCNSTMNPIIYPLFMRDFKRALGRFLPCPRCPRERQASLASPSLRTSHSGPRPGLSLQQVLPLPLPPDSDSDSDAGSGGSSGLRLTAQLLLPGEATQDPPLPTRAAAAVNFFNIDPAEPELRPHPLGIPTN

| SMILES | Ki (rat 5-HT7a receptor) | Ki (5-HT2B receptor [1]) | Ki [2] | Ki [3] | Kb (5-HT2A receptor [4]) | Ki (5-HT2A receptor [5]) | Kb (5-HT2B receptor [6]) |
| --- | --- | --- | --- | --- | --- | --- | --- |
| Fc1ccc(-c2nc(Cc3ccccc3)nc3c2CCNC3)cc1 [Example 76, 2-Benzyl-4-(4-fluoro-phenyl)-5,6,7,8-tetrahydro-pyrido[3,4-d]pyrimidine hydrochloride] | 150 nM | 315 nM | 75 nM | 300 nM | 100 nM | 9 nM | – |
| Fc1ccc(Cc2nc3c(c(-c4ccc(F)cc4)n2)CCNCC3)cc1 [Example 57, 2-(4-Fluoro-benzyl)-4-(4-fluoro-phenyl)-6,7,8,9-tetrahydro-5H-pyrimido[4,5-d]azepine] | 550 nM | 40 nM | 50 nM | 80 nM | 6.31 nM | 0.7 nM | 126 nM |
| CN1CCc2c(nc(Cc3ccccc3)nc2-c2ccc(F)cc2)C1 [Example 82, 2-Benzyl-4-(4-fluoro-phenyl)-7-methyl-5,6,7,8-tetrahydro-pyrido[3,4-d]pyrimidine hydrochloride] | > 10000 nM | 500 nM | 20 nM | 230 nM | 7.94 nM | 2 nM | 3980 nM |
| CC(C)c1nc(-c2ccc(F)cc2)c2c(n1)C(C)CNC2 (stereo not shown) [Example 100, 4-(4-Fluoro-phenyl)-2-isopropyl-8-methyl-5,6,7,8-tetrahydro-pyrido[4,3-d]pyrimidine hydrochloride] | > 10000 nM | 900 nM | 300 nM | – | 100 nM | 14 nM | – |
| CC(C)c1nc2c(c(-c3ccc(F)cc3)n1)CCNCC2 [Example 50, 4-(4-Fluoro-phenyl)-2-isopropyl-6,7,8,9-tetrahydro-5H-pyrimido[4,5-d]azepine hydrochloride] | 240 nM | 20 nM | 80 nM | 260 nM | – | 3.7 nM | 5.01 nM |
| Fc1ccc(Cc2nc3c(c(-c4ccc(F)cc4)n2)CNCC3)cc1 [Example 13, 2-(4-Fluoro-benzyl)-4-(4-fluoro-phenyl)-5,6,7,8-tetrahydro-pyrido[4,3-d]pyrimidine] | > 10000 nM | 2200 nM | 1000 nM | – | 79.4 nM | 12.5 nM | – |
| c1ccc(Cc2nc3c(c(-c4ccccc4)n2)CCNC3)cc1 [Example 78, 2-Benzyl-4-phenyl-5,6,7,8-tetrahydro-pyrido[3,4-d]pyrimidine] | 400 nM | 900 nM | 380 nM | – | 79.4 nM | 25 nM | – |
| Fc1ccc(-c2nc(C3CCCC3)nc3c2CNCC3)cc1 [Example 17, 2-Cyclopentyl-4-(4-fluoro-phenyl)-5,6,7,8-tetrahydro-pyrido[4,3-d]pyrimidine] | > 10000 nM | 250 nM | 70 nM | – | 7.94 nM | 4 nM | 3980 nM |
| Fc1ccc(-c2nc(Cc3ccccc3)nc3c2CCCNC3)cc1 [Example 64, 2-Benzyl-4-(4-fluoro-phenyl)-6,7,8,9-tetrahydro-5H-pyrimido[4,5-c]azepine hydrochloride] | > 10000 nM | 1300 nM | 70 nM | 1300 nM | 79.4 nM | 10 nM | – |
| CC(C)c1nc2c(c(-c3ccc(F)cc3)n1)CNCC2 [Example 21, 4-(4-Fluoro-phenyl)-2-isopropyl-5,6,7,8-tetrahydro-pyrido[4,3-d]pyrimidine hydrochloride] | > 10000 nM | 1190 nM | 1170 nM | > 10000 nM | 31.6 nM | 25 nM | – |
| Cc1ccc(-c2nc(Cc3ccccc3)nc3c2CCN(Cc2ccccc2)C3)cc1 [Example 71, 2,7-Dibenzyl-4-p-tolyl-5,6,7,8-tetrahydro-pyrido[3,4-d]pyrimidine] | > 10000 nM | 4330 nM | 3580 nM | 300 nM | – | 1030 nM | – |

Reference: US7598255B2 (Janssen Pharmaceutica NV, priority 2005, dated 2009)
